Patent US10633374B2, “Small molecule based antibody-recruiting compounds for cancer treatment” (YALE UNIVERSITY, priority 2015, dated 2020)

Legend:
A172 glioblastoma cells = experiment: Antibody-dependent cellular phagocytosis (ADCP) of A172 cells by U937 cells; assay type: cell-based, human; settings: U937 effector cells, anti-DNP antibodies
Description: ADCP experiments carried out via a dual channel flow cytometry assay and were performed by measuring the % phagocytosis of A172 human glioblastoma cells by IFN-gamma primed U937 macrophage effector cells each stained with FL-1 and FL-4 dyes respectively giving rise to double positive FL-1 and FL-4 fluorescence shifts accompanying phagocytosis. These assays were performed in the presence and absence of exogenously added anti-DNP antibodies and various concentrations of each ARM-U2 derivative. Control experiments were also performed to confirm that cellular phagocytosis is occurring and is dependent on ARM-U2 binding cell surface uPAR by • 1. Performing out competitions with exogenous uPAR, • 2. Performing out-competitions with 6-ABT-4 which should bind uPAR but not anti-DNP antibodies • 3. Performing ADCP at 4 degrees Celsius where phagocytosis cannot occur and • 4. Amnis microscopic analysis of double positives identified in the ADCP assay to undergo 6-ABT-1 dependent phagocytosis.
IFNγ-primed U937 cells were stained with DiD dye (final concentration 1.9 μM) for 30 min at 37° C. A172 target cells were prepared by staining adherent cells with DiO dye (Invitrogen; final concentration 1.9 μM), and then nonenzymatically detaching the cells with 0.5 mM EDTA and EGTA. Cells were counted with trypan blue staining to verify cell viability. To measure phagocytosis, 2.5×10^4 target cells were suspended in 25 ul phenol-free low-IgG RPMI media to which 25 ul of 100 nM anti-DNP antibody (rabbit polyclonal KLH IgG, Invitrogen-100× stock) containing media was added followed by the addition of 1 ul of ARM-U2 from 100×DMSO stocks or 6-ABT-4 from 100×DMSO stocks for compound out-competition experiments, followed by the addition of 50 ul of 10^5 U937 cells in the same RPMI Assay Media resulting in a final volume of 100 uL. This experimental setup yielded an effector-to-target ratio (E:T ratios) of 4:1. For out-competition studies with exogenous uPAR, 250 ul of A-172 target cells in assay media was added directly to lyophilized 100 ug uPAR (R@D systems) to yield an 8.4 uM stock uPAR concentration, this was then combined in the manner and order described above. Eppendorfs were centrifuged at 200 rcf for 2 min then incubated at 37° C. for 1 hour or at 4° C. for 1 hr in controls establishing real phagocytosis is indeed represented by double positives in flow cytometry. Phagocytosis was halted by placing tubes on ice. […] The live cell population selected was further gated into four quadrants using dual FL-1 and FL-4 fluorescence enabling for the differentiation of effector only cells (top left quadrant-high FL-4), target only cells (bottom right quadrant-high FL-1 fluorescence), and double positive overlapping target and effector cells (top right quadrant-high FL-1 and FL-4 fluorescence). […]

uPAR (uPA binding site) = biological target: T1, uPAR (uPA binding site) (Homo sapiens, UniProt Q03405); experiment: Competitive ELISA uPAR binding assay (immobilized urokinase)
T1 construct: purchased R&D systems
T1 sequence (Q03405 23-305): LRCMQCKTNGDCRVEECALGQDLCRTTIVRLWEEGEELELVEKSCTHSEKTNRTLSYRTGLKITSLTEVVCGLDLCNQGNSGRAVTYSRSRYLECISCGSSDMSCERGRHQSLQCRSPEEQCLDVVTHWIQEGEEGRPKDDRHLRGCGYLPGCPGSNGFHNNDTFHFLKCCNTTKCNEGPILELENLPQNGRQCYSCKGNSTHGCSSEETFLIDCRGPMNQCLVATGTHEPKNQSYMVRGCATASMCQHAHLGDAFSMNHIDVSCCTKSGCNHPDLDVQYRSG
Description: The affinity of ARM-U2 derivatives differing in both the length of the DNP-linker substituted at position 2 of ring C and the display of negative charge density (FIG. 8, Table 1) for uPAR were assayed using a competitive ELISA binding assay. The assay involves the immobilization of urokinase, a natural high affinity ligand for uPAR followed by the addition of a fixed concentration of recombinant uPAR protein and increasing concentrations of ARM-U2 which competes with urokinase for binding to the uPA binding site of uPAR. Following several washing steps, the amount of uPAR bound is quantified by a biotinylated anti-uPAR antibody and avidin-HRP and can be fit to a competitive binding model allowing for the extraction of the uPAR/ARM-U2 Kd.
All ARM-U2 derivatives were assessed for their ability to bind selectively to recombinant uPAR in vitro using a competitive ELISA binding assay. DMSO stock solutions of each ARM-U2 derivative stored at −20° C. were titrated into wells pre-coated with human urokinase (isolated from human urine, ProSpec 1 mg/ml deI water 18.5 μM) in the presence of uPAR. Selective binding to uPAR by ARM-U2 at the uPA binding site competes with uPAR-uPA binding which is required for a positive UV 450 nm absorbance signal. Increasing concentrations of ARM-U2 displace increasing amounts of uPAR from uPA which is detected by anti-uPAR/biotin labeled antibodies followed by avidin-HRP. The sigmoidal binding isotherm of absorbance at 450 nm vs log ARM-U2 concentration can then by fit by non-linear regression analysis to obtain the IC50 for ARM-U2/uPAR binding (Equation S2) which can then be translated into a KI for ARM-U2/uPAR binding using a competitive binding model adapted from the Cheng-Prusoff equation relating KI to IC50 (Equation S3). The ELISA experiments were performed as followed: To Corning high binding 96 well flat bottom plates was added 100 μl/well of 100 nM urokinase in sterile PBS. The plates were sealed and left to incubate at 4° C. overnight. The plates were then washed 1× with 200 μl wash buffer (PBS+0.05% Tween-20) and 1× with 400 μl wash buffer. The plates were blotted on paper towel and blocked for 1 h shaking at room temp with 300 μl of a solution of thermo superblock in PBS per well. Molecule dilutions into solutions of a fixed concentration (10 nM) of uPAR were prepared in 0.025% triton-X/PBS on a separate low binding plate during the blocking hour. The plates were again washed followed by the addition of 100 μl of the ARM-U2/uPAR solution with 0.1% final DMSO concentration. The solutions were mixed by multichannel pipette, sealed, and incubated for 2 h with shaking at room temperature. The plates were then washed 1× with 200 μl wash buffer (PBS+0.05% Tween-20) and 2× with 400 μl wash buffer. The plates were blotted on a paper towel followed by the addition of 100 μl/well of a solution of biotinylated anti-uPAR antibody in 1% BSA/PBS. (R&D Systems, 3.3 μl taken from 50 μg/250 μl-1000× stock) and incubation with shaking for 1 h at room temp. The plates were washed 1× with 200 μl wash buffer and 2× with 400 μl wash buffer and blotted on a paper towel. 100 μl of avidin-HRP (stock −500× from e-bioscience) were added per well, incubated 20 min with shaking at room temp followed by washing 1× with 200 μl wash buffer and 3× with 400 μl wash buffer. The plates were blotted dry with paper towel and 100 μl of TMB substrate was added to each well. The emergence of blue color was monitored and the reaction quenched with the addition of 50 μl of 2M sulfuric acid to each well followed by measuring the absorbance at 450 nm using a fluorescence plate reader. […]

recombinant uPAR = biological target: T2, recombinant uPAR (Homo sapiens, UniProt Q03405); experiment: Fluorescence quenching titration of ARM-U2 derivatives with uPAR; assay type: binding; settings: fluorescence titration of 100 nM derivative with increasing uPAR; read-out: Kd, solution equilibrium dissociation constant with uPAR
T2 construct: purchased R&D systems
T2 sequence (Q03405 23-305): as above
Description: Selected ARM-U2 derivatives were assayed for their ability to bind recombinant uPAR using a fluorescence quenching assay. […] Increasing concentrations of recombinant uPAR were mixed with each compound containing aliquot and the fluorescence of the solution measured following 1 h equilibration times. […] To confirm that the observation of uPAR dependent fluorescence quenching was indeed due to specific binding to uPAR and to validate ARM-U2 binding to uPAR specifically via the uPA binding site, a direct binding ELISA assay was developed. In this assay, clear 96-well high-binding plates from CoStar, were loaded with 100 μl/well of 50 nM recombinant uPAR 807-UK-100-CF from R&D systems prepared from a 100 μg/ml (approx. 2.1 μM) stock of uPAR in PBS and left overnight at room temperature to equilibrate. Following equilibration, the plate was washed with wash buffer 1× (400 μl/well of 0.05% Tween/PBS), blotted dry and blocked for 1 hr with 300 ul/well of 2% BSA/PBS. Following blocking, the plate was washed with 400 ul of the wash buffer and blotted dry. […] The absorbance at 450 nm was measured using an in-house Perkin-Elmer fluorescence plate reader.
All ARM-U2 derivatives were assessed for their ability to bind selectively to recombinant uPAR in vitro using a competitive ELISA binding assay. […] Selective binding to uPAR by ARM-U2 at the uPA binding site competes with uPAR-uPA binding which is required for a positive UV 450 nm absorbance signal. Increasing concentrations of ARM-U2 displace increasing amounts of uPAR from uPA which is detected by anti-uPAR/biotin labeled antibodies followed by avidin-HRP. The sigmoidal binding isotherm of absorbance at 450 nm vs log ARM-U2 concentration can then by fit by non-linear regression analysis to obtain the IC50 for ARM-U2/uPAR binding (Equation S2) which can then be translated into a KI for ARM-U2/uPAR binding using a competitive binding model adapted from the Cheng-Prusoff equation relating KI to IC50 (Equation S3). […]

[1] = system: B16 melanoma tumors expressing human uPAR; experiment: B16 mouse melanoma allograft model expressing human uPAR; assay type: in vivo
Source text: The inventors also examined the efficacy of ARM-U2 in a B16−uPAR mouse allograft model developed in our laboratory. Mice immunized to produce anti-DNP IgG antibodies containing tumors expressing human uPAR, received daily treatment via intraperitoneal (IP) injection and were monitored over the course of 42 days.

Compound	ADCP efficacy and potency compared to 1-ABT-1 (A172 glioblastoma cells)	uPAR-binding affinity relative to parent ARM-U2 derivative 1-ABT-1 (uPAR (uPA binding site))	further results
O=C(O)c1cc(Nc2cc(N3CCC[C@H](C(=O)NCCCOCCOCCOCCCNc4ccc([N+](=O)[O-])cc4[N+](=O)[O-])C3)c3noc4c3c2C(=O)c2ccccc2-4)cc(C(=O)O)c1 [2-ABT-1]	no increase in efficacy or potency in ADCP	no increase in uPAR-binding affinity	
O=C(O)CNC(=O)c1cccc(Nc2cc(N3CCC[C@H](C(=O)NCCCOCCOCCOCCCNc4ccc([N+](=O)[O-])cc4[N+](=O)[O-])C3)c3noc4c3c2C(=O)c2ccccc2-4)c1 [3-ABT-1]	no increase in efficacy or potency in ADCP	modest increase in affinity	
O=C(O)CNc1cccc(Nc2cc(N3CCC[C@H](C(=O)NCCCOCCOCCOCCCNc4ccc([N+](=O)[O-])cc4[N+](=O)[O-])C3)c3noc4c3c2C(=O)c2ccccc2-4)c1 [4-ABT-1]	no increase in efficacy or potency in ADCP	modest increase in affinity	
O=C1c2ccccc2-c2onc3c(N4CCC[C@H](C(=O)NCCCOCCOCCOCCCNc5ccc([N+](=O)[O-])cc5[N+](=O)[O-])C4)cc(Nc4cccc(S(=O)(=O)O)c4)c1c23 [5-ABT-1]	no increase in % phagocytosis	no increase in uPAR-binding affinity	
O=C(CCCC(=O)NCCOCCOCCOCCOCCOCCOCCOCCNc1ccc([N+](=O)[O-])cc1[N+](=O)[O-])NCCOCCOCCOCCOCCOCCOCCOCCNC(=O)[C@H]1CCCN(c2cc(Nc3ccc(S(=O)(=O)O)cc3S(=O)(=O)O)c3c4c(onc24)-c2ccccc2C3=O)C1 [6-ABT-3]			Kd (recombinant uPAR): 0.018 µM
Nc1c(N2CCCC(C(=O)NCCCOCCOCCOCCCNc3ccc([N+](=O)[O-])cc3[N+](=O)[O-])C2)cc(Nc2ccc(S(=O)(=O)O)cc2S(=O)(=O)O)c2c1C(=O)c1ccccc1C2=O (stereo not drawn) [compound 23]			Ki (uPAR (uPA binding site); calculated from the ELISA IC50): 0.01 µM; IC50 (uPAR (uPA binding site); competition with immobilized uPA for uPAR): 0.063 µM
COc1cccc2c1C(=O)c1c(O)c3c(c(O)c1C2=O)C[C@@](O)(C(=O)CO)C[C@@H]3O[C@H]1C[C@H](N)[C@H](O)[C@H](C)O1 [doxorubicin]			average tumor volume after 17 days ([1]; IP injections over 17 days): approximately 200 mm^3; mean survival ([1]; daily IP treatment): 27 days; tumor growth inhibition (TGI) ([1]; daily IP, ARM-U2 20 mpk or 100 mpk, Dox 1 mpk, vs PBS): comparable; persistence of tumor regression after treatment cessation ([1]; mouse, in vivo): ~14 days
